Earlier results in patent US20240024221A1, “COMPOSITION FOR BRIGHTENING AND/OR WHITENING KERATIN MATERIALS” (L'OREAL, priority 2020, published 2024).

Settings: 25° C.; raw material table

For `CCCCCCCCCCCC[N+](C)(C)CC(=O)[O-]` [LAURYL BETAINE], which HLB is on record?
The HLB was 15.

With `CCCCCCCCCCC(CCCCCCCC)CO[C@@H]1OC[C@@H](O)[C@H](O)[C@H]1O` (some centres unmarked) [OCTYLDODECYL XYLOSIDE] as the molecule, how does the HLB read?
The HLB was 7.3.

Which HLB does the source give for POLYGLYCERYL-2 OLEATE here?
Its HLB is 8.

For POLYSORBATE 20, which HLB is on record?
The HLB was 18.6.

With SODIUM DILAURAMIDOGLUTAMIDE LYSINE as the molecule, how does the HLB read?
The HLB was 12.6.
